From paper PMC8728736, “A Reactivity-Based ^18F-Labeled Probe for PET Imaging of Oxidative Stress in Chemotherapy-Induced Cardiotoxicity” (Molecular Pharmaceutics, 2021)
Several values for one entry are separate records, joined by “and”; a condition that tells them apart may be missing. Equal values may be shown once. Blank lines part the entries; values can stand above or below the molecule they belong to.

Tests used:
[1] = Serum stability at 37 °C by radio-HPLC; assay type: in vitro ADME, rat; settings: serum, 37 °C, up to 30 min
Experimental: ^18F-FPBT (∼3.0 MBq) in 5% ethanol in PBS (200 μL) containing sodium ascorbate (0.01 mg/mL) was incubated with rat serum (200 μL) at 37 °C for 1 min or 1 h. Subsequently, plasma proteins were precipitated from the supernatant with ice-cold acetonitrile (1.5 mL), and samples were centrifuged (3 min, 13 000 rpm). The residual activity in the pellet was <3%. The supernatant (∼2.0 MBq, 1.0 mL) was analyzed by radio-HPLC. HPLC method: ZORBAX column (300SB-C18, semipreparative 9.4 mm × 250 mm, 5 μm) using acetonitrile and water as the mobile phase, at a flow rate of 3.0 mL/min. The following gradient was used: from 50% to 90% acetonitrile in 15 min; kept at 90% acetonitrile for 10 min; from 90 to 50% acetonitrile in 5 min.
^18F-FBPT-Ox (2–4 MBq, 50 μL in 10% EtOH/PBS) was added to serum (500 μL) and incubated at 37 °C for 5, 15, and 30 min, respectively. Plasma proteins were precipitated with a 5-sulfosalicylic acid water solution (10% w/v, 1 mL) and centrifuged (3 min, 13 000 rpm). The supernatant was removed and diluted with 500 μL of DI H2O and analyzed via radio-HPLC. A control experiment was performed where ^18F-FBPT-Ox (2 MBq, 50 μL in 10% EtOH/PBS) was added to 500 μL of PBS, incubated at 37 °C for 30 min. A 5-sulfosalicylic acid water solution (10% w/v, 1 mL) was added, thoroughly mixed, then diluted with 500 μL of DI H2O, and analyzed via radio-HPLC. […]

[2] = Lipophilicity, partition between 1-octanol and PBS; assay type: physicochemical; settings: 1-octanol/PBS pH 7.4, shake-flask, n = 6
Experimental: The lipophilicity of ^18F-FPBT and ^18F-FPBT-Ox was determined by a conventional partition method between 1-octanol and phosphate buffered saline (PBS), pH 7.4. 1-Octanol was presaturated with PBS before use. The radiotracer (∼2 KBq) was added to a mixture of PBS (200 μL) and 1-octanol (200 μL) in a 1.5 mL Eppendorf vial (n = 6). The mixture was vigorously agitated at rt for 5 min and then centrifuged at 3000 g for 10 min. A 100 μL aliquot from each layer was drawn for measurement in a gamma counter. The LogDoct/PBS was calculated as follows: log [(cpm in the 1-octanol layer – cpm 1-octanol blank)/(cpm in the PBS layer – cpm PBS blank)].

[3] = In vivo blood stability of 18F-FPBT-Ox; set-up: species or system Wistar rats; settings: rats, plasma radio-HPLC with gamma counting, n = 2
Experimental: Wistar rats (male, 320 ± 20 g) were intravenously injected with ^18F-FPBT-Ox (∼15 MBq). The animals were sacrificed by cervical dislocation at 30 min postinjection (n = 2). Blood samples were collected in heparin-coated tubes. After centrifugation (5 min, 13 000 rpm), the plasma (∼1 mL) was separated. Plasma proteins were subsequently precipitated with 5-sulfosalicylic acid water solution (10% w/v, 1.5 mL) and centrifuged (5 min, 13,000 rpm). The supernatant was removed and diluted with 500 μL of DI H2O and analyzed via radio-HPLC. HPLC method: ZORBAX column (300SB-C18, semipreparative 9.4 mm × 250 mm, 5 μm). Solvent A: H2O. Solvent B: MeCN. Flow rate: 3.0 mL/min; 0–5 min, 0% of B; 5–20 min, 0–50% of B; 20–30 min, 50–0% of B. HPLC eluent was collected every minute in 30 vials separately and submitted to gamma counting. The counts per minute in each vial were plotted against the corresponding time point.

[4] = Post-mortem biodistribution in healthy rats; assay type: in vivo, Wistar rats; settings: iv; for Ex vivo biodistribution, Blood / Ex vivo biodistribution, Bone / Ex vivo biodistribution, Brain / Ex vivo biodistribution, Heart / Ex vivo biodistribution, Kidney / Ex vivo biodistribution, Large Intestine / Ex vivo biodistribution, Liver / Ex vivo biodistribution, Lung / Ex vivo biodistribution, Muscle / Ex vivo biodistribution, Small Intestine / Ex vivo biodistribution, Spleen / Ex vivo biodistribution, Urine: healthy rats, mean ± SD, n = 3
Experimental: Wistar rats (male, 319 ± 20 g) were injected intravenously via the tail vein with either ^18F-FPBT (1.0 ± 0.4 MBq) or ^18F-FPBT-Ox (1.1 ± 0.5 MBq). The animals were sacrificed by cervical dislocation at 1, 5, or 30 min postinjection (n = 3/group). Organs and tissues of interest were harvested and weighed, and the radioactivity was measured in a gamma counter. Organ uptake was calculated as the percentage injected dose per gram of tissue mass (% ID/g). Data are reported as mean ± SD.

[5] = Rat model of doxorubicin-induced cardiotoxicity: body weight and echocardiography; assay type: in vivo, Wistar rats; settings: rats
Experimental: (§1) Male Wistar rats (280–300 g) were used in all experiments. Subcutaneous 7 day osmotic pumps (Alzet), containing either doxorubicin (Cambridge Bioscience, 30 mg/kg cumulative dose) or vehicle (sterile 0.9% NaCl), were inserted into rats under 2% isoflurane in 100% oxygen.
In order to assess cardiac function, all rats were subjected to a cardiac ultrasound (Vevo 770TM, VisualSonics) 1 day prior to and on day 6 of osmotic pump implantation. Rats were anesthetized with 2% isoflurane in 100% oxygen and maintained at 37 °C via a homeothermic platform and rectal thermometer. High-resolution parasternal left ventricle (LV) long axis M-mode and B-mode images were obtained using an RMV710B transducer. Images were analyzed offline using Vevo Software to determine LV function. Data are reported as mean ± SD. Statistical analysis was performed using one-way ANOVA with Tukey’s multiple comparisons test.

[6] = Ex vivo heart biomarkers of oxidative stress; assay type: in vivo, Wistar rats; settings: hearts harvested after PET imaging, n = 4
Experimental: as §1
Total glutathione concentration was determined by an enzyme recycling method.[21] Lipid peroxidation was evaluated using the lipid peroxidation (MDA) assay kit from Sigma-Aldrich, which measures the colorimetric product that results from the reaction of malondialdehyde (MDA) present in the tissue with thiobarbituric (TBA) acid. Iron content was measured in isolated mitochondria and cytosolic fractions using the iron colorimetric assay kit from BioVision following the manufacture’s protocol.

Compound: [18F]CCC[n+]1c(-c2ccccc2)sc2ccccc21 [^18F-FPBT-Ox]
Serum stability (in words) [1]: excellent serum stability
LogD [2]: −1.00 ± 0.04 and ~−1
Time stable in blood post IV injection [3]: at least 30 min
Route of clearance / excretion, in words ([4]; healthy Wistar rats): quickly cleared by the kidneys and excreted through the urine
Uptake by major organs (brain, heart, lung, spleen), in words ([4]; healthy Wistar rats): significantly reduced uptake
Ex vivo biodistribution, Blood ([4]; 1 min): 0.36 ± 0.12 % ID/g
Ex vivo biodistribution, Bone ([4]; 1 min): 0.16 ± 0.14 % ID/g
Ex vivo biodistribution, Brain ([4]; 1 min): 0.23 ±0.19 % ID/g
Ex vivo biodistribution, Heart ([4]; 1 min): 0.39 ± 0.25 % ID/g
Ex vivo biodistribution, Kidney ([4]; 1 min): 4.22 ± 0.20 % ID/g
Ex vivo biodistribution, Large Intestine ([4]; 1 min): 0.12 ± 0.07 % ID/g
Ex vivo biodistribution, Liver ([4]; 1 min): 1.49 ± 0.65 % ID/g
Ex vivo biodistribution, Lung ([4]; 1 min): 0.31 ±0.05 % ID/g
Ex vivo biodistribution, Muscle ([4]; 1 min): 0.06 ± 0.02 % ID/g
Ex vivo biodistribution, Small Intestine ([4]; 1 min): 0.28 ± 0.20 % ID/g
Ex vivo biodistribution, Spleen ([4]; 1 min): 0.26 ± 0.13 % ID/g
Ex vivo biodistribution, Urine ([4]; 1 min): 1.39 ± 1.21 % ID/g
Ex vivo biodistribution, Blood ([4]; 5 min): 0.15 ± 0.08 % ID/g
Ex vivo biodistribution, Bone ([4]; 5 min): 0.09 ± 0.03 % ID/g
Ex vivo biodistribution, Brain ([4]; 5 min): 0.14 ± 0.11 % ID/g
Ex vivo biodistribution, Heart ([4]; 5 min): 0.18 ± 0.06 % ID/g
Ex vivo biodistribution, Kidney ([4]; 5 min): 1.15 ± 0.75 % ID/g
Ex vivo biodistribution, Large Intestine ([4]; 5 min): 0.10 ± 0.04 % ID/g
Ex vivo biodistribution, Liver ([4]; 5 min): 1.17 ± 0.37 % ID/g
Ex vivo biodistribution, Lung ([4]; 5 min): 0.21 ± 0.05 % ID/g
Ex vivo biodistribution, Muscle ([4]; 5 min): 0.05 ± 0.02 % ID/g
Ex vivo biodistribution, Small Intestine ([4]; 5 min): 1.59 ± 1.93 % ID/g
Ex vivo biodistribution, Spleen ([4]; 5 min): 0.11 ± 0.04 % ID/g
Ex vivo biodistribution, Urine ([4]; 5 min): 9.29 ± 3.02 % ID/g
Ex vivo biodistribution, Blood ([4]; 30 min): 0.09 ± 0.04 % ID/g
Ex vivo biodistribution, Bone ([4]; 30 min): 0.12 ± 0.06 % ID/g
Ex vivo biodistribution, Brain ([4]; 30 min): 0.07 ± 0.07 % ID/g
Ex vivo biodistribution, Heart ([4]; 30 min): 0.11 ± 0.06 % ID/g
Ex vivo biodistribution, Kidney ([4]; 30 min): 0.59 ± 0.31 % ID/g
Ex vivo biodistribution, Large Intestine ([4]; 30 min): 0.05 ± 0.04 % ID/g
Ex vivo biodistribution, Liver ([4]; 30 min): 0.90 ± 0.59 % ID/g
Ex vivo biodistribution, Lung ([4]; 30 min): 0.12 ± 0.07 % ID/g
Ex vivo biodistribution, Muscle ([4]; 30 min): 0.03 ± 0.00 % ID/g
Ex vivo biodistribution, Small Intestine ([4]; 30 min): 0.63 ± 0.64 % ID/g
Ex vivo biodistribution, Spleen ([4]; 30 min): 0.07 ± 0.05 % ID/g
Ex vivo biodistribution, Urine ([4]; 30 min): 15.80 ± 12.98 % ID/g

Cardiac oxidative stress biomarkers (glutathione, maldonaldehyde, mitochondrial iron, cytosolic iron) compared to saline control group [6]: marginally higher
Compound: COc1cccc2c1C(=O)c1c(O)c3c(c(O)c1C2=O)C[C@@](O)(C(=O)CO)C[C@@H]3O[C@H]1C[C@H](N)[C@H](O)[C@H](C)O1 [doxorubicin]
Body weight decrease ([5]; doxorubicin 30 mg/kg cumulative dose by 7 day osmotic pump, implantation to day 7, n = 6): 16.2 ± 8.9%
Reduction of left ventricular ejection fraction at day 6 compared to baseline at day 0 ([5]; doxorubicin 30 mg/kg cumulative dose by osmotic pump, echocardiography): 15%
Left ventricular ejection fraction compared to time-matched vehicle controls at day 6 ([5]; echocardiography): cannot detect the statistical difference
